Experimental data taken from patent US6723708B2, “Use of lithium (Li+) for the preparation of a composition for transfection of a polynucleotide into a cell and compositions useful in gene therapy” (Transgene S.A., priority 1999, dated 2004).

Tested on: tibialis anterior muscles
Assay: Intramuscular transfection of plasmid pTG11033 with LiCl, luciferase activity in muscle extracts
Assay type: in vivo, C57BL/10 mice
Conditions: pTG11033 25 μg/muscle intramuscular with LiCl 0.1, 1, 10 mM; measured 7 days after injection; versus NaCl 0.9% control
Protocol: Plasmid DNA (pTG11033: CMV promoter, β-globin intron, luciferase cassette—WO 98/34910) was prepared according to Bischoff et al., Analytical Biochemistry 254 (1997), 69-81. Prior to intramuscular injection the tested molecules were mixed with the plasmid DNA preparation. 25 μg of plasmid DNA were injected per muscle into 5 to 10 week-old C57BL/10 mice. The 2 tibialis anterior (right and left) muscles were injected (each muscle was considered as a sample). Furthermore, for each condition, both the lowest and highest luciferase acitvity values were omitted, which means number of sample per condition=(2×number of mice per condition)−2.
One week after injection of the composition, the mice were killed and the tibialis anterior muscles were retrieved and frozen. Luciferase activity was quantified on whole muscle extracts using a conventional measurement kit (Luciferase Assay System, Promega). Briefly, muscles were ground separately and diluted in 200 μl of reporter lysis buffer (Promega). 10 μl-samples were placed in 96 well-plates and mixed with 100 μl of substrate. Luciferase activity was expressed as number of RLU emitted per minute, per mg of protein.
Protein was measured on 10 μl samples using a VCA Protein Assay kit (Pierce).
In this example, the stock solution of plasmid pTG11033 was prepared in TE buffer (Tris 10 mM—EDTA 1 mM) at a nucleic acid concentration of […]. […]

[Cl-].[Li+] [LiCI, lithium chloride]
increase of luciferase activity in the injected muscles: around 5 times
